Results as given in patent US20220025058A1, “METHODS AND PHARMACEUTICAL COMPOSITIONS FOR THE TREATMENT OF ACUTE MYELOID LEUKEMIA BY ERADICATING LEUKEMIC STEM CELLS” (INSERM (INSTITUT NATIONAL DE LA SANTÉ ET DE LA RECHERCHE …, priority 2018, published 2022).
pEC50: −log10 of the molar value.

Tested on: MOLM-14 cells
Experiment: EC50 experiments (MTS cell viability) on MOLM-14 cells sorted from xenografted mice
Format: cell-based
Conditions: Homo sapiens, MOLM-14, 168 h, after one week of in vitro culture
Procedure: The day before experiment, cells were adjusted to 3×10^5 cells/ml final concentration and plated in a 96-well plate (final volume: 100 μl). To measure half-maximal inhibitory concentration (EC50), increased concentrations of AraC or idarubicin were added to the medium. After two days, 20 μl per well of MTS solution (Promega) was added for two hours and then absorbance was recorded at 490 nm with a 96-well plate reader. The doses that decrease cell viability to 50% (EC50) were analyzed Nonlinear regression log [inhibitor] vs. normalized response-variable slope with GraphPad Prism software.
After 10 days, shRNA expression was activated and the mice were treated with 30 mg/kg/day cytarabine for 5 days (FIG. 2A). […] Also MOLM-14 expressing shCTR and treated by vehicle or AraC were sorted by flow cytometry, and plated in vitro for further experiments. […] To evaluate the role of CALCRL in this chemoresistance acquired in vivo, we undertook to deplete CALCRL in these cells.

[1] = MOLM-14 shCTR cells from AraC treated group mice
[2] = MOLM-14 shCTR cells from vehicle group mice

Row | pEC50 [1] | pEC50 [2] | Compound
1 | 5.17 | 5.65 | Nc1ccn([C@@H]2O[C@H](CO)[C@@H](O)[C@@H]2O)c(=O)n1 [AraC, cytarabine]
2 | 7.22 | 7.54 | CC(=O)[C@]1(O)Cc2c(O)c3c(c(O)c2[C@@H](O[C@H]2C[C@H](N)[C@H](O)[C@H](C)O2)C1)C(=O)c1ccccc1C3=O [idarubicin]
